US10076522B2, “Systems and methods for treating bacterial infection” (priority 2016, dated 2018)
Structures can show the parent of a compound that is named as a salt.

Experiments:
[1] = Acute IV toxicity in rats; conditions: rat, in vivo
[2] = Acute IV toxicity in the mouse; assay type: in vivo
physchem [3] = conditions: 20 °C, water
[4] = pH of a 1% solution in water; assay type: physicochemical
physchem [5] = test: physchem
in vivo = conditions: both; for NOAEL at 28 day: marmoset
Procedure: A repeated-dose, 4-week toxicity study was conducted in male and female rats, where single, daily IV bolus doses up to 60 mg/kg were given. […] A 28-day toxicity study was also conducted in male and female marmosets, where iclaprim mesylate was infused intravenously over a 20-minute interval.

[6] = Phase III REVIVE-1 study, safety (adverse events); conditions: REVIVE-1 safety population
Procedure: All subjects who received any study drug were evaluated for safety on the basis of medical history and physical examinations, reports of clinical AEs, routine electrocardiography, and clinically significant findings from routine liver function tests, serum chemistry, hematology, coagulation, and urinalysis (UA) tests. All adverse events were recorded throughout the study period, up to and including the LFU phone call. While blinded to treatment assignment, the investigator categorized the severity of each AE and the potential for relationship to study drug. Serious AEs (SAEs) include those that were life threatening, led to prolongation of the existing hospitalization, a congenital anomaly/birth defect, or caused persistent or significant disability, incapacity, or death. Treatment-emergent AEs (TEAEs) were defined as those that start or worsen in severity during or after the first dose of study drug administration through end of study.
Safety evaluation included incidence of TEAEs, laboratory test results (including liver function tests), vital signs, ECG results, and physical examination findings. All summaries of safety data was based on the safety population (all treated subjects).
The AE summary tables included subject (patient) counts. Therefore, if a subject experienced more than one episode of a particular AE, the subject was counted only once for that event. If a subject had more than one AE that was coded to the same preferred term, the subject was counted only once for that preferred term. Similarly, if a subject had more than one AE within a SOC, the subject was counted only once in that SOC.

[7] = system: acute bacterial skin and skin structure infections (ABSSSIs) suspected or confirmed to be due to Gram-positive pathogens; test: Phase III REVIVE-1 study, efficacy of fixed dose iclaprim versus vancomycin; assay type: in vivo, human; conditions: ITT
Procedure: Subjects were evaluated daily up to ETP, then every 48 to 72 hours through the end of treatment. If the last dose of study drug fell on a day when an evaluation was not planned, an additional evaluation visit was performed on that day (i.e., all EOT evaluations were performed on the last day [+2 days] of drug dose).
The infusion time and duration of treatment for both groups was 2 hours and 5 days (minimum duration) to 14 days (maximum duration), respectively.
The primary endpoint for clinical response (defined as the reduction in lesion size ≥20% compared to baseline) was evaluated in all randomized subjects at ETP (48 to 72 hours post-first dose). […] In addition, clinical outcome was evaluated by the investigator at EOT and TOC (7 to 14 days post EOT). The assessments of clinical outcome was categorized as cure, failure, or indeterminate.
Iclaprim was administered at a dose of 80 mg in 500 mL normal saline, infused over 2 hours q12h (every 12 hours) for 5 to 14 days. For subjects with moderate hepatic impairment (Child-Pugh Class B), iclaprim was administered at a dose of 40 mg in 500 mL normal saline, infused over 2 hours q12h for 5 to 14 days.
Dosing interval was every q12 h, q24 h, q48 h, or dosed by daily level based on creatinine clearance.
The primary efficacy endpoint was the proportion of randomized subjects who achieved an early clinical response (defined as reduction in the lesion size ≥20% compared to baseline) at 48 to 72 hours (ETP) and was evaluated among all randomized subjects (ITT population).
The NI bound were 10%. […] Equivalently, if the lower bound of the two-sided 95% CI for P1-P2 was greater than −0.100 based on the Z test with unpooled variance estimate, NI was concluded.

[8] = in vivo, iv; cited from earlier work
[9] = human, in vivo

For `COc1cc(Cc2cnc(N)nc2N)c2c(c1OC)OC(C1CC1)C=C2` (racemic) [iclaprim mesylate, 5-[(2RS)-2-cyclopropyl-7,8-dimethoxy-2Hchromen-5-ylmethyl] pyrimidine-2,4-diamine methanesulfonate], the LD50 ([1]; female rats) was over 200 mg/kg, the LD50 ([1]; male rats) was 150 to 200 mg/kg and the “HED of lowest lethal IV dose” value [2] was 6.1 mg/kg. For the same compound, the “lowest lethal IV dose” value [2] was 75 mg/kg, the solubility (physchem [3]) was about 10000 µg/mL and the “pH value of a 1% solution in water” value [4] was 4.2. The pKa (physchem [5]) was 7.2, the NOAEL at 28 day (in vivo) was 3.9 mg/kg/day and the NOAEL at 28 day (in vivo; iv) was 30 mg/kg/day. For the same compound, the “dosage with histopathological changes at the injection sites” value (in vivo; rat, iv, 4 week) was at least 10 mg/kg/day, the NOAEL at 4 week (in vivo; rat, iv, HED of NOAEL) was 3.9 mg/kg/day and the NOAEL at 4 week (in vivo; rat, iv, NOAEL) was over 30 mg/kg/day.
In the case of `CN[C@H](CC(C)C)C(=O)N[C@H]1C(=O)N[C@@H](CC(N)=O)C(=O)N[C@H]2C(=O)N[C@H]3C(=O)N[C@H](C(=O)N[C@H](C(=O)O)c4cc(O)cc(O)c4-c4cc3ccc4O)[C@H](O)c3ccc(c(Cl)c3)Oc3cc2cc(c3O[C@@H]2O[C@H](CO)[C@@H](O)[C@H](O)[C@H]2O[C@H]2C[C@](C)(N)[C@H](O)[C@H](C)O2)Oc2ccc(cc2Cl)[C@H]1O` [Vancomycin, vancomycin, reference compound], the “Deaths, number of subjects” value [6] is reported as 1, the “Deaths, percent of subjects” value [6] is reported as 0.3% and the “Study drug related TEAEs, number of subjects” value [6] is reported as 53. The “Study drug related TEAEs, percent of subjects” value [6] was 17.8%, the “TEAE-related SAEs (Serious AEs), number of subjects” value [6] was 12 and the “TEAE-related SAEs (Serious AEs), percent of subjects” value [6] was 4.0%. The “TEAEs (Treatment Emergent Adverse Events), number of subjects” value [6] was 128, the “TEAEs (Treatment Emergent Adverse Events), percent of subjects” value [6] was 43.1% and the “TEAEs leading to discontinuation of study drug, number of subjects” value [6] was 13. The “TEAEs leading to discontinuation of study drug, percent of subjects” value [6] was 4.4%, the “Early Clinical Response (ECR), percent of subjects” value ([7]; ETP (48 to 72 hours)) was 81.0% and the “Clinical cure, number of subjects” value ([7]; TOC (7 to 14 days after study drug discontinuation)) was 261. For the same compound, the “Clinical cure, percent of subjects” value ([7]; TOC) was 87.0%.
In the case of `CC[C@H]1OC(=O)[C@H](C)[C@@H](O[C@H]2C[C@@](C)(OC)[C@@H](O)[C@H](C)O2)[C@H](C)[C@@H](O[C@@H]2O[C@H](C)C[C@H](N(C)C)[C@H]2O)[C@](C)(OC)C[C@@H](C)C(=O)[C@H](C)[C@@H](O)[C@]1(C)O` [clarithromycin], the QTc prolongation [8] is listed as 3 to 11 ms.
With `CC(=O)NC[C@H]1CN(c2ccc(N3CCOCC3)c(F)c2)C(=O)O1` [linezolid, reference compound] the “adverse events related to QTc prolongation” value [9] was 2 cases.
